Test results: patent US7786079B2, “Substituted nonadepsipeptides” (priority 2004, dated 2010)
*1 amine or outer side, *2 acyl side, *3 side chain or, on linkers, in order; H or OH if unused. Where a SMILES comes first, the peptide text is derived from it. Bridges are numbered along the chain shown (N, C = ends). Side-chain parts run from the residue outwards. [ ]: non-standard residue; d: D form. The star is where a group is joined. X1 = NC(=O)[C@@H](OC(=O)c1ccc(N2CCOCC2)nc1)[C@H](N[*:1])C(=O)[*:2]; Phe(3R-OH) = O=C([C@@H](N[*:1])[C@H](O[*:3])c1ccccc1)[*:2]; X2 = NC(=O)[C@@H](OC(=O)Nc1ccccc1)[C@H](N[*:1])C(=O)[*:2]; NH(4-morpholinophenyl) = c1cc(N2CCOCC2)ccc1N*; Asn(3S-OH) = NC(=O)[C@@H](O)[C@H](N)C(=O)O; Leu(3R-OH) = CC(C)[C@@H](O)[C@H](N)C(=O)O; aThr = C[C@H](O)[C@H](N)C(=O)O; CO = O=C([*:1])[*:2]

Tests used:
E. faecium L4001 = format: cell-based
Experimental: (§1) Determination of the Minimum Inhibitory Concentration (MIC): The MIC is determined in the liquid dilution test in accordance with the NCCLS guidelines. […] The cultures are incubated at 37° C. for 18-24 hours, S. pneumoniae in the presence of 10% CO2. The lowest substance concentration in each case at which no visible bacterial growth occurs any more is defined as the MIC. The MIC values are reported in μg/ml.

[1] = test system: Staphylococcus aureus 133; format: cell-based
Experimental: as §1

[2] = test system: Streptococcus pneumoniae G9a; format: cell-based
Experimental: as §1

E. faecalis ICB 27159 = format: cell-based, Entercococcus faecalis
Experimental: as §1

SMILES | MIC E. faecium L4001 (E. faecium L4001) | MIC S. aureus 133 [1] | MIC S. pneumoniae G9a [2] | MIC E. faecalis ICB 27159 (E. faecalis ICB 27159)
CC[C@H](C)[C@@H]1NC(=O)[C@@H](CCCNC(=N)N)NC(=O)[C@H](CC(C)C)NC(=O)[C@H]([C@H](O)C(C)C)NC(=O)[C@@H](NC(=O)[C@H](CC(C)C)NC(=O)[C@H](N)CC(C)C)[C@@H](c2ccccc2)OC(=O)[C@H](CO)NC(=O)[C@H]([C@H](OC(=O)Nc2ccccc2)C(N)=O)NC(=O)CNC(=O)[C@H]([C@H](C)O)NC1=O.O=C(O)C(F)(F)F.O=C(O)C(F)(F)F [Example 2] (H-[dL]L[Phe(3R-OH)][Leu(3R-OH)]L[dR]I[aThr]G[X2]S; ester 3-C) | 4 µg/mL | 0.5 µg/mL | 1 µg/mL | 1 µg/mL
CC[C@H](C)[C@@H]1NC(=O)[C@@H](CCCNC(=N)N)NC(=O)[C@H](CC(C)C)NC(=O)[C@H]([C@H](O)C(C)C)NC(=O)[C@@H](NC(=O)[C@H](CC(C)C)NC(=O)[C@H](N)CC(C)C)[C@@H](c2ccccc2)OC(=O)[C@H](CO)NC(=O)[C@H]([C@H](OC(=O)c2ccc(N3CCOCC3)nc2)C(N)=O)NC(=O)CNC(=O)[C@H]([C@H](C)O)NC1=O.O=C(O)C(F)(F)F.O=C(O)C(F)(F)F [Example 17] (H-[dL]L[Phe(3R-OH)][Leu(3R-OH)]L[dR]I[aThr]G[X1]S; ester 3-C) | 4 µg/mL | 0.5 µg/mL | 0.5 µg/mL | 2 µg/mL
CC[C@H](C)[C@@H]1NC(=O)[C@@H](CCCNC(=N)NC(=O)Nc2ccc(N3CCOCC3)cc2)NC(=O)[C@H](CC(C)C)NC(=O)[C@H]([C@H](O)C(C)C)NC(=O)[C@@H](NC(=O)[C@H](CC(C)C)NC(=O)[C@H](N)CC(C)C)[C@@H](c2ccccc2)OC(=O)[C@H](CO)NC(=O)[C@H]([C@H](O)C(N)=O)NC(=O)CNC(=O)[C@H]([C@H](C)O)NC1=O.O=C(O)C(F)(F)F [Example 11] (H-[dL]L[Phe(3R-OH)][Leu(3R-OH)]L[dR]([CO-NH(4-morpholinophenyl)])I[aThr]G[Asn(3S-OH)]S; ester 3-C) | 1 µg/mL | 0.5 µg/mL | 0.5 µg/mL | 0.5 µg/mL
